# Columns and labels:
# 9 L gliosarcoma cells = assay: Amino acid uptake inhibition assay in 9 L gliosarcoma cells; type: cell-based, rat
# Experimental: Amino acid uptake inhibition assays. The 9 L gliosarcoma cells were initially grown as monolayers in T-flasks containing Dulbecco's Modified Eagle's Medium (DMEM) under humidified incubator conditions (37° C., 5% CO2/95% air). The growth media was supplemented with 10% fetal calf serum and antibiotics (10,000 units/ml penicillin and 10 mg/ml streptomycin). The growth media was replaced three times per week, and the cells were passaged so the cells would reach confluency in a week's time.
# When the monolayers were confluent, cells were prepared for experimentation in the following manner. Growth media was removed from the T-flask, and the monolayer cells were exposed to 1× trypsin:EDTA for ˜1 minute to weaken the protein attachments between the cells and the flask. The flask was then slapped, causing the cells to release. Supplemented media was added to inhibit the proteolytic action of the trypsin, and the cells were aspirated through an 18 Ga needle until they were monodisperse. A sample of the cells was counted under a microscope using a hemocytometer, and the live/dead fraction estimated through trypan blue staining (>98% viability). The remainder of the cells was placed into a centrifuge tube, centrifuged at 75 G for 5 minutes, and the supernatant was removed. The cells were then resuspended in amino-acid/serum-free DMEM salts.
# In this study, approximately 4.55×10^5 cells were exposed to either [^18F]5a or [^18F]5b (5 μCi) in 3 ml of amino acid free media±transporter inhibitors (10 mM) for 30 minutes under incubator conditions in 12×75 mm glass vials. Each assay condition was performed in duplicate. After incubation, cells were twice centrifuged (75 G for 5 minutes) and rinsed with ice-cold amino-acid/serum-free DMEM salts to remove residual activity in the supernatant. The vials were placed in a Packard Cobra II Auto-Gamma counter, the raw counts decay corrected, and the activity per cell number determined. The data from these studies (expressed as percent uptake relative to control) were graphed using Excel, with statistical comparisons between the groups analyzed using a 1-way ANOVA (GraphPad Prism software package).
# [1] = Rodent biodistribution study in normal Fischer rats; type: in vivo, rat; settings: for Tissue distribution of radioactivity, Blood / Tissue distribution of radioactivity, Bone / Tissue distribution of radioactivity, Brain / Tissue distribution of radioactivity, Heart / Tissue distribution of radioactivity, Kidney / Tissue distribution of radioactivity, Liver / Tissue distribution of radioactivity, Lung / Tissue distribution of radioactivity, Muscle / Tissue distribution of radioactivity, Pancreas / Tissue distribution of radioactivity, Spleen / Tissue distribution of radioactivity, Testis: normal Fischer rats
# Experimental: Rodent biodistribution studies. The same procedures were used to evaluate [^18F]5a and [^18F]5b separately in rodents. The tissue distribution of radioactivity was determined in 16 normal male Fischer 344 rats (200-250 g) after intravenous injection of ˜85 μCi of [^18F]5a or [^18F]5b in 0.3 mL of sterile water. The animals were allowed food and water ad libitum before the experiment. Following anesthesia induced with an intramuscular injection of 0.1 mL/100 g of a 1:1 ketamine ([…]):xylazine (20 mg/mL) solution, the radiolabeled amino acid was injected into the rats via tail vein catheters. Groups of four rats were killed at 5 minutes, 30 minutes, 60 minutes and 120 minutes after injection of the dose. The animals were dissected, and selected tissues were weighed and counted along with dose standards in a Packard Cobra II Auto-Gamma Counter. The raw counts were decay corrected, and the counts were normalized as the percent of total injected dose per gram of tissue (% ID/g). A comparison of the uptake of activity in the tissues at each time point was analyzed using a 1-way ANOVA (GraphPad Prism software package).
# [2] = 5 min after injection, listed as [^18F]FAMP (5a)
# [3] = 120 min after injection, listed as [^18F]FAMP (5a)
smiles,measurement,setting,value
"CC(N)(CF)C(=O)O (racemic) [[^18F]5a, 2-amino-3-fluoro-2-methylpropanoic acid]",uptake of activity blocked by BCH relative to controls,"9 L gliosarcoma cells; BCH 10 mM, 30 minutes, 9 L gliosarcoma cells",48%
same,uptake of activity blocked by N-MeAIB relative to controls,"9 L gliosarcoma cells; N-MeAIB 10 mM, 30 minutes, 9 L gliosarcoma cells",80%
same,intracellular accumulation in 9 L gliosarcoma cells,"9 L gliosarcoma cells; absence of inhibitors, 30 minutes of incubation",0.43 % of the initial dose per million cells
same,substrate for non-A transport system,9 L gliosarcoma cells; based on inhibition of uptake by BCH,"substrate in vitro for at least one non-A transport system, possibly system L"
same,substrate for A-type amino acid transport system,9 L gliosarcoma cells; based on inhibition of uptake by N-MeAIB,substrates for the A-type amino acid transport system
same,"Tissue distribution of radioactivity, Blood",[1]; 5 min after injection,0.53 ± 0.03 percent dose per gram
same,"Tissue distribution of radioactivity, Bone",[1]; 5 min after injection,0.27 ± 0.005 percent dose per gram
same,"Tissue distribution of radioactivity, Brain",[1]; 5 min after injection,0.04 ± 0.003 percent dose per gram
same,"Tissue distribution of radioactivity, Heart",[1]; 5 min after injection,0.29 ± 0.012 percent dose per gram
same,"Tissue distribution of radioactivity, Kidney",[1]; 5 min after injection,6.36 percent dose per gram
same,"Tissue distribution of radioactivity, Liver",[1]; 5 min after injection,0.65 percent dose per gram
same,"Tissue distribution of radioactivity, Lung",[1]; 5 min after injection,0.55 ± 0.006 percent dose per gram
same,"Tissue distribution of radioactivity, Muscle",[1]; 5 min after injection,0.22 ± 0.013 percent dose per gram
same,"Tissue distribution of radioactivity, Pancreas",[1]; 5 min after injection,3.46 percent dose per gram
same,"Tissue distribution of radioactivity, Spleen",[1]; 5 min after injection,0.83 ± 0.05 percent dose per gram
same,"Tissue distribution of radioactivity, Testis",[1]; 5 min after injection,0.17 ± 0.010 percent dose per gram
same,"Tissue distribution of radioactivity, Kidney",[1]; [2],6.36 ± 0.36 percent dose per gram
same,"Tissue distribution of radioactivity, Liver",[1]; [2],0.65 ± 0.05 percent dose per gram
same,"Tissue distribution of radioactivity, Pancreas",[1]; [2],3.46 ± 0.19 percent dose per gram
same,"Tissue distribution of radioactivity, Blood",[1]; 30 min after injection,0.25 ± 0.014 percent dose per gram
same,"Tissue distribution of radioactivity, Bone",[1]; 30 min after injection,0.22 ± 0.02 percent dose per gram
same,"Tissue distribution of radioactivity, Brain",[1]; 30 min after injection,0.05 ± 0.004 percent dose per gram
same,"Tissue distribution of radioactivity, Heart",[1]; 30 min after injection,0.29 ± 0.04 percent dose per gram
same,"Tissue distribution of radioactivity, Kidney",[1]; 30 min after injection,5.59 ± 0.28 percent dose per gram
same,"Tissue distribution of radioactivity, Liver",[1]; 30 min after injection,0.56 ± 0.04 percent dose per gram
same,"Tissue distribution of radioactivity, Lung",[1]; 30 min after injection,0.54 ± 0.12 percent dose per gram
same,"Tissue distribution of radioactivity, Muscle",[1]; 30 min after injection,0.22 ± 0.009 percent dose per gram
same,"Tissue distribution of radioactivity, Pancreas",[1]; 30 min after injection,2.93 ± 0.20 percent dose per gram
same,"Tissue distribution of radioactivity, Spleen",[1]; 30 min after injection,0.54 ± 0.03 percent dose per gram
same,"Tissue distribution of radioactivity, Testis",[1]; 30 min after injection,0.10 ± 0.006 percent dose per gram
same,"Tissue distribution of radioactivity, Blood",[1]; 60 min after injection,0.22 ± 0.02 percent dose per gram
same,"Tissue distribution of radioactivity, Bone",[1]; 60 min after injection,0.19 ± 0.03 percent dose per gram
same,"Tissue distribution of radioactivity, Brain",[1]; 60 min after injection,0.06 ± 0.004 percent dose per gram
same,"Tissue distribution of radioactivity, Heart",[1]; 60 min after injection,0.28 ± 0.013 percent dose per gram
same,"Tissue distribution of radioactivity, Kidney",[1]; 60 min after injection,4.74 ± 0.15 percent dose per gram
same,"Tissue distribution of radioactivity, Liver",[1]; 60 min after injection,0.50 ± 0.013 percent dose per gram
same,"Tissue distribution of radioactivity, Lung",[1]; 60 min after injection,0.44 ± 0.05 percent dose per gram
same,"Tissue distribution of radioactivity, Muscle",[1]; 60 min after injection,0.26 ± 0.02 percent dose per gram
same,"Tissue distribution of radioactivity, Pancreas",[1]; 60 min after injection,2.95 ± 0.27 percent dose per gram
same,"Tissue distribution of radioactivity, Spleen",[1]; 60 min after injection,0.50 ± 0.04 percent dose per gram
same,"Tissue distribution of radioactivity, Testis",[1]; 60 min after injection,0.12 ± 0.006 percent dose per gram
same,"Tissue distribution of radioactivity, Blood",[1]; 120 min after injection,0.15 ± 0.005 percent dose per gram
same,"Tissue distribution of radioactivity, Bone",[1]; 120 min after injection,0.13 ± 0.012 percent dose per gram
same,"Tissue distribution of radioactivity, Brain",[1]; 120 min after injection,0.05 ± 0.001 percent dose per gram
same,"Tissue distribution of radioactivity, Heart",[1]; 120 min after injection,0.23 ± 0.03 percent dose per gram
same,"Tissue distribution of radioactivity, Kidney",[1]; 120 min after injection,2.97 percent dose per gram
same,"Tissue distribution of radioactivity, Liver",[1]; 120 min after injection,0.48 percent dose per gram
same,"Tissue distribution of radioactivity, Lung",[1]; 120 min after injection,0.37 ± 0.10 percent dose per gram
same,"Tissue distribution of radioactivity, Muscle",[1]; 120 min after injection,0.19 ± 0.003 percent dose per gram
same,"Tissue distribution of radioactivity, Pancreas",[1]; 120 min after injection,2.48 percent dose per gram
same,"Tissue distribution of radioactivity, Spleen",[1]; 120 min after injection,0.33 ± 0.02 percent dose per gram
same,"Tissue distribution of radioactivity, Testis",[1]; 120 min after injection,0.10 ± 0.004 percent dose per gram
same,"Tissue distribution of radioactivity, Kidney",[1]; [3],2.97 ± 0.17 percent dose per gram
same,"Tissue distribution of radioactivity, Liver",[1]; [3],0.48 ± 0.03 percent dose per gram
same,"Tissue distribution of radioactivity, Pancreas",[1]; [3],2.48 ± 0.03 percent dose per gram
same,"uptake of radioactivity in heart, lung, bone, blood, muscle and testis","[1]; normal rats, 5 minutes",< 0.55 % ID/g
same,brain uptake of radioactivity,"[1]; normal rats, all time points",approximately 0.05 % ID/g
